In test [1] the test system is HepG2. Briefly: Cytotoxicity against human HepG2 cells assessed as reduction in cell viability after 72 hrs by MTT assay. To be noted: HepG2, 72 h. The format is functional, cell-based. A general note: Tetrazolium dyes change colour on reduction, which living cells bring about.
For test [2], the target named is Telomerase reverse transcriptase (Homo sapiens) (UniProt O14746). Description: Inhibition of telomerase in human HepG2 cells at 2 uM after 1 day by TRAP-ELISA method. It is filed as cell-based.
The target is the same in test [3]. Briefly: Inhibition of telomerase in human HepG2 cells at 1 to 4 uM after 1 to 3 days by TRAP-ELISA method. It is filed as cell-based. (ELISA stands for enzyme-linked immunosorbent assay.)
Test [4] shares this target. Description: Inhibition of telomerase in human HepG2 cells at 2 uM after 3 days by TRAP-ELISA method. The format is cell-based.
In test [5] the test system is HepG2. Description: Induction of apoptosis in human HepG2 cells at 0.04 umol/ml after 24 hrs by annexin V-FITC/propidium iodide staining based flow cytometry (reference value: 0.54%). It is filed as functional.
The test system of test [6] is HepG2. Description: Induction of apoptosis in human HepG2 cells at 0.08 umol/ml after 24 hrs by annexin V-FITC/propidium iodide staining based flow cytometry (reference value: 0.54%). The format is functional.
Test [7] deals with Telomerase reverse transcriptase (Homo sapiens) (UniProt O14746). Briefly: Inhibition of telomerase in human HepG2 cells at 4 uM after 3 days by TRAP-ELISA method. It is filed as cell-based.
The target is the same in test [8]. Description: Inhibition of telomerase in human HepG2 cells at 1 uM after 2 days by TRAP-ELISA method. It is filed as cell-based.
The target is the same in test [9]. Briefly: Inhibition of telomerase in human HepG2 cells at 4 uM after 2 days by TRAP-ELISA method. It is filed as cell-based.
Test [10] relates to HepG2. Description: Induction of apoptosis in human HepG2 cells at 0.02 umol/ml after 24 hrs by annexin V-FITC/propidium iodide staining based flow cytometry (reference value: 0.54%). It is filed as functional.
The target of test [11] is Telomerase reverse transcriptase (Homo sapiens) (UniProt O14746). Description: Inhibition of telomerase in human HepG2 cells at 2 uM after 2 days by TRAP-ELISA method. It is filed as cell-based.
Test [12] has the same target. Description: Inhibition of telomerase in human HepG2 cells at 1 uM after 1 day by TRAP-ELISA method. The format is cell-based.
Test [13] has the same target. Description: Inhibition of telomerase in human HepG2 cells at 1 uM after 3 days by TRAP-ELISA method. The format is cell-based.
Test [14] has as its system HepG2. Briefly: Induction of apoptosis in human HepG2 cells at 0.01 umol/ml after 24 hrs by annexin V-FITC/propidium iodide staining based flow cytometry (reference value: 0.54%). The format is functional. In general terms: A flow cytometer gives signals particle by particle.
For test [15], the target named is Telomerase reverse transcriptase (Homo sapiens) (UniProt O14746). Description: Inhibition of telomerase in human HepG2 cells at 4 uM after 1 day by TRAP-ELISA method. The format is cell-based.
The test system of test [16] is HepG2. Description: Induction of apoptosis in human HepG2 cells at 0.01 to 0.08 umol/ml after 24 hrs by annexin V-FITC/propidium iodide staining based flow cytometry. It is filed as functional, cell-based.

We go through 28 compounds from ChEMBL document CHEMBL3393000, “Synthesis and anticancer activity of some 8-substituted-7-methoxy-2H-chromen-2-one derivatives toward hepatocellular carcinoma HepG2 cells” (Eur J Med Chem, 2015).

pIC50: −log10 of the molar value.

For orientation: pIC50 means the negative decadic logarithm of the IC50, by convention in mol/L. One may read the inhibition as how much of the control response was suppressed.

Sequence of Telomerase reverse transcriptase (Homo sapiens) (O14746 whole entry): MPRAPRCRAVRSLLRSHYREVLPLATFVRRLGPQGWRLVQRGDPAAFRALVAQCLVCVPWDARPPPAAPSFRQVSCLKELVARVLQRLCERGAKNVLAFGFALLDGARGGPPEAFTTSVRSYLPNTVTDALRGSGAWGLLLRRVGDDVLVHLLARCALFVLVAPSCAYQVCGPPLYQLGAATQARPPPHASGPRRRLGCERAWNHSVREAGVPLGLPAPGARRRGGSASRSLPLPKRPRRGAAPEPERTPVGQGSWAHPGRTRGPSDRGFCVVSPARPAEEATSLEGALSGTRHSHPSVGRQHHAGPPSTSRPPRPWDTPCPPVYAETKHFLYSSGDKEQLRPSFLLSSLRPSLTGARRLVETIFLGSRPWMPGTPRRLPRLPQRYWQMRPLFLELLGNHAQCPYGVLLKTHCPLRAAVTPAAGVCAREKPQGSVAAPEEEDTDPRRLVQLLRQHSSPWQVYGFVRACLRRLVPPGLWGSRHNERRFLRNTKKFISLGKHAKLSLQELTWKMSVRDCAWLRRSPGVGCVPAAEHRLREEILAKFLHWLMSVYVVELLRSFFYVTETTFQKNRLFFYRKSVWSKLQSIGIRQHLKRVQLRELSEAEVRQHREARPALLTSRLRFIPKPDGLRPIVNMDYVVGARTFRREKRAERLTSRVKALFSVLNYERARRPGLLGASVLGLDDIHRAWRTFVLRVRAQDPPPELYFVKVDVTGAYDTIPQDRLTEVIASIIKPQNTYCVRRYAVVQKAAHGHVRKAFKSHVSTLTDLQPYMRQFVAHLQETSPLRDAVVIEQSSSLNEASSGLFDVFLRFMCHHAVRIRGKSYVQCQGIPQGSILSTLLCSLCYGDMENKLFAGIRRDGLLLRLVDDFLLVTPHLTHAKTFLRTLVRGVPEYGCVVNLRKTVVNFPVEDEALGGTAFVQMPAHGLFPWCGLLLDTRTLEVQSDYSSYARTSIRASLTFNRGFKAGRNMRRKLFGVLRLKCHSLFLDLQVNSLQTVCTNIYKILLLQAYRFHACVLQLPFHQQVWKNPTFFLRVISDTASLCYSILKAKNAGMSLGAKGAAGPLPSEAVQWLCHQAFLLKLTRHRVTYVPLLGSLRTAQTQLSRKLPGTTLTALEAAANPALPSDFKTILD

In the case of `COc1ccc2ccc(=O)oc2c1C(/C=C/c1ccccc1)=N/NC(N)=O`, the pIC50 with HepG2 [1] is 7.09.
On to `COc1ccc2ccc(=O)oc2c1C1=NNC(c2ccc(SC)cc2)C1` (configuration not stated), for which the inhibition in test [2] was 23.2%; in [3] it was “Dose-dependent effect”; in [4], 46.4%; in test [7], 78.6%; in test [8], 22.4%; in test [9] it was 65.2%. In addition, the inhibition in test [11] was 34.5%; in [12], 19.4%; in test [13] it was 30.1%; in [15] it was 32.3%. Further, the Activity with HepG2 [5] is 40.96%; in the test with HepG2 [6], 46.85%; in the test with HepG2 [10], 35%; in the test with HepG2 [14] it was 25.45%; with HepG2 [16] it was “Dose-dependent effect”. Also, the pIC50 with HepG2 [1] is 8.00.
`COc1ccc2ccc(=O)oc2c1C1=NN(C(N)=O)C(c2cccs2)C1` (configuration not stated): the pIC50 with HepG2 [1] was 7.59.
The same measure, in the same setting: the value for `COc1ccc2ccc(=O)oc2c1C(/C=C/c1ccc(C)cc1)=N/NC(N)=O` was 7.03.
In the case of `COc1ccc2ccc(=O)oc2c1C1=NNC(c2ccc(C(F)(F)F)cc2)C1` (configuration not stated), the inhibition is 21% in test [2]; “Dose-dependent effect” in test [3]; 42% in [4]; 71.1% in test [7]; 20.2% in test [8]; 59% in [9]. The inhibition in test [11] worked out at 31.2%; in test [12], 17.5%; in test [13] it was 27.2%; in test [15], 29.2%. Moreover, the negative-log IC50 (pIC50) with HepG2 [1] was 7.89.
For `COc1ccc2ccc(=O)oc2c1C1=NN(c2ccccc2)C(c2ccc(SC)cc2)C1` (configuration not stated), in the test with HepG2 [1], the pIC50 was 7.11.
For the compound `COc1ccc2ccc(=O)oc2c1C(/C=C/c1ccc(SC)cc1)=N/NC(N)=O`, in the test on HepG2 [1], the pIC50 was 7.00.
Take `COc1ccc2ccc(=O)oc2c1C1=NNC(c2ccccc2)C1` (configuration not stated): the pIC50 with HepG2 [1] is 7.32.
As for `COc1ccc2ccc(=O)oc2c1C1=NN(C(N)=O)C(c2ccc(C)cc2)C1` (configuration not stated), in the test with HepG2 [1], the pIC50 is 7.34.
The same measure, in the same setting: the figure for `COc1ccc2ccc(=O)oc2c1C1=NN(C(C)=O)C(c2ccc(SC)cc2)C1` (configuration not stated) is 7.38; for `COc1ccc2ccc(=O)oc2c1C(/C=C/c1ccc(C(F)(F)F)cc1)=N/NC(N)=O` it is 7.02; for `COc1ccc2ccc(=O)oc2c1C1=NN(C(C)=O)C(c2ccccc2)C1` (configuration not stated) it is 7.28.
Regarding `COc1ccc2ccc(=O)oc2c1C1=NN(C(C)=O)C(c2cccs2)C1` (configuration not stated), the pIC50 in the test with HepG2 [1] is 7.12.
The same measure, in the same setting: the value for `COc1ccc2ccc(=O)oc2c1C1=NN(C(C)=O)C(c2ccc(C)cc2)C1` (configuration not stated) was 7.30.
For the compound `COc1ccc2ccc(=O)oc2c1C1=NN(c2ccccc2)C(c2cccs2)C1` (configuration not stated), the inhibition in [2] is 20.1%; in test [3], “Dose-dependent effect”; in test [4], 40.3%; in test [7], 68.3%; in test [8] it was 19.4%; in test [9], 56.6%. The inhibition in [11] is 30%; in test [12] it was 16.8%; in test [13] it was 26.1%; in [15], 28%. Besides, in the test on HepG2 [1], the negative-log IC50 (pIC50) is 7.82.
For `COc1cccc2c1C(=O)c1c(O)c3c(c(O)c1C2=O)C[C@@](O)(C(=O)CO)C[C@@H]3O[C@H]1C[C@H](N)[C@H](O)[C@H](C)O1` [DOXORUBICIN], the pIC50 with HepG2 [1] is 6.20.
On the same count and under the same terms, the figure for `COc1ccc2ccc(=O)oc2c1C1=NN(c2ccccc2)C(c2ccc(C)cc2)C1` (configuration not stated) is 7.29; for `COc1ccc2ccc(=O)oc2c1C1=NN(C(N)=O)C(c2ccc(C(F)(F)F)cc2)C1` (configuration not stated) it is 7.02; for `COc1ccc2ccc(=O)oc2c1C1=NNC(c2ccc(C)cc2)C1` (configuration not stated) it is 7.37.
Same read-out and setting: the value for `COc1ccc2ccc(=O)oc2c1C1=NN(C(C)=O)C(c2ccc(C(F)(F)F)cc2)C1` (configuration not stated) was 7.10.
As to `COc1ccc2ccc(=O)oc2c1C1=NN(C(N)=O)C(c2ccc(SC)cc2)C1` (configuration not stated), the inhibition in [2] is 18.2%; in test [3], “Dose-dependent effect”; in test [4] it was 36.5%; in test [7] it was 61.7%; in test [8] it was 17.6%; in test [9], 51.2%. Further, the inhibition is 27.1% in [11], 15.2% in [12], 23.6% in [13] and 25.3% in test [15]. Also, the pIC50 in the test on HepG2 [1] was 7.74.
For the compound `COc1ccc2ccc(=O)oc2c1C1=NNC(c2cccs2)C1` (configuration not stated), the inhibition in test [2] was 22.3%; in test [3], “Dose-dependent effect”; in [4], 44.6%; in [7], 75.5%; in test [8] it was 21.5%; in test [9], 62.6%. For the same compound, the inhibition worked out at 33.1% in test [11], 18.6% in test [12], 28.9% in test [13] and 31% in test [15]. The pIC50 in the test with HepG2 [1] is 7.96.
In the case of `COc1ccc2ccc(=O)oc2c1C(/C=C/c1cccs1)=N/NC(N)=O`, the pIC50 with HepG2 [1] is 7.12.
Consider `CN[C@@H]1C[C@H]2O[C@@](C)([C@@H]1OC)n1c3ccccc3c3c4c(c5c6ccccc6n2c5c31)C(=O)NC4`, for which the inhibition was 12.7% in [2]; “Dose-dependent effect” in test [3]; 28.7% in test [4]; 56.5% in [7]; 11.3% in test [8]; 40.1% in test [9]. Further, the inhibition stood at 18.9% in test [11], 10.7% in test [12], 15.4% in [13] and 30.1% in test [15].
With `COc1ccc2ccc(=O)oc2c1CC=C(C)C` [OSTHOLE], the pIC50 in the test on HepG2 [1] was 3.79.
Consider `COc1ccc2ccc(=O)oc2c1C1=NN(c2ccccc2)C(c2ccc(C(F)(F)F)cc2)C1` (configuration not stated), for which, in the test on HepG2 [1], the negative-log IC50 (pIC50) is 7.42.
Same read-out and setting: the value for `COc1ccc2ccc(=O)oc2c1C1=NN(C(N)=O)C(c2ccccc2)C1` (configuration not stated) was 7.05; that for `COc1ccc2ccc(=O)oc2c1C1=NN(c2ccccc2)C(c2ccccc2)C1` (configuration not stated) was 7.14.
